“Also recorded” adds a separate entry of the source. Square brackets hold non-standard residues; d marks the D form. Ends that are not written are not given here. Hyp = O=C(O)[C@@H]1C[C@@H](O)CN1

The source of these data is US11638763B2, “Nanoallergens and uses thereof” (University of Notre Dame du Lac, priority 2015, dated 2023).

Assay [1] deals with RBL-2H3 cells. Put plainly: Degranulation assay, RBL-2H3 cells primed with monoclonal IgE. In kind it is cell-based, rat. To be noted: valency of 18, FIG. 19. How it is done: Cell Culture. RBL-2H3 cells were cultured in Minimum Essential Media (Gibco) with 10% fetal bovine serum (Gemini BioProducts) as previously described.^25
Degranulation Assays. RBL degranulation assays were performed as previously described, expect using nanoallergens as the allergen.^23 Additionally, RBL cells were incubated with 1 μg/mL of total IgE overnight prior to nanoallergen incubation using 75% IgE^cyclinA as an orthogonal IgE (i.e. an IgE specific to a molecule, cyclinA, which is not used in this study) to simulate physiological conditions for all degranulation assays.^21

In assay [2] the target is IgE^dansyl. Put plainly: Fluorescence quenching titration of dansyl conjugates. In kind it is binding. To be noted: monovalent affinity of hapten-amino acid conjugate. How it is done: Fluorescence Quenching Assay. The binding constants for dansyl conjugates were determined as previously described.^27 Briefly, Dansyl conjugates were titrated into wells containing 15 nM IgE^dansyl and then the flourscence read at various concentration points (Ex=280 nm, Em=335).

Assay [3] concerns the target IgE^dansyl. Put plainly: Fluorescence quenching binding of HBI molecules to IgE^dansyl. How it is done: Fluorescence Quenching. In order to determine binding of HBI molecules to respective antibodies, we observed the quenching of tryptophan resides using a method previously described. Briefly, either IgE^dansyl or IgG^Penicillin was diluted into a non-binding 96-well dish at 40 nM in PBS. Then, HBI molecules which contained either a dansyl or DNP group were titrated into well and fluorescence (Ex. 280 nm, Em. 335) was observed using a SpectraMax M2 spectrophotometer. PBS and free tryptamine diluted to similar initial fluorescence values were used as controls to account for HBI fluorescence and non-specific quenching respectively.

Assay [4] relates to RBL-SX38 cells. Put plainly: Degranulation assay, RBL-SX38 cells primed with peanut allergy patient sera. In kind it is cell-based, rat. To be noted: for degranulation response: 2% epitope-lipid nanoallergens, single patient serum (FIG. 4); for Immuno-reactivity: epitope-lipid loaded in nanoallergens, patient sera; for effect on Ara h 2 triggered degranulation: 100 μM free epitope 2, FIG. 13. How it is done:
Cell Culture. RBL-SX38 cells were a generous gift from Dr. Jean-Pierre Kinet from Harvard University. RBL-SX38 cells were cultured in Minimum Essential Media (Gibco) with 10% fetal bovine serum (Gemini BioProducts, Sacramento Calif.) and 1.2 mg/mL of G418 salt (Sigma) as previously described.
Degranulation Assays. Degranulation assays were performed as previously described using nanoallergens as the allergen. RBL cells were plated into 96-well dishes for 24 hrs and then incubated with 10% of human sera in cell culture media for an additional 24 hrs prior to the degranulation assay.
Using the mast-like rat basophil leukemia SX38 (RBL) cell line that has been transfected to express the human FcεRI on their surface, applicants can use peanut reactive patient sera in applicants' cellular degranulation assays (FIG. 8). The RBL cells become sensitized when IgEs from the patient sera (including those reactive to peanuts) tightly bind to the high affinity FcεRI. After sensitization, applicants added varying concentrations of either Ara h 2 or nanoallergens with 2% of epitope 2 lipid loaded into the liposome.

Assay [5] relates to Bruton's tyrosine kinase (BTK). In words: Western blot of BTK phosphorylation in stimulated RBL-SX38 cells. In kind it is cell-based, rat. To be noted: FIG. 3. How it is done:
Western Blot. Stimulated RBL cells were analyzed for intracellular activity with a Western blotting technique previously described. RBL-SX38 cells were plated at approximately 0.5×10^6 cells per mL into a 3 mL dish for 24 hours. Cells were then incubated in 10% patient serum in cell culture media for 24 hours. Cells were then washed with Tyrodes buffer and incubated with Tyrodes from 30 minutes at 37° C. Ara h 2 or nanoallergens were then added at varying concentrations and incubated at 37° C. for 3 minutes. Cells were washed with ice cold PBS, then incubated in RIPA with phosphatase inhibitor lysis buffer, scrapped and sonicated for a minute intervals over the course of 30 minutes on ice. Lysates were then spun down at 15000 RPM for 10 minutes and their protein concentration determined by Bradford Assay. Laemmli buffer and PBS were added to all lysates so that their protein concentration was 0.5 mg/mL or would be 0.5 mg/mL prior to immunoprecipitation. Samples were boiled for 5 minutes; centrifuged and 20 uL of each was added to a 10% SDS-PAGE gel. Samples ran on the gel for 1 hr, were transferred to nitrocellulose paper for 1.5 hrs, and blocked with 5% BSA in TBS-T for 1 hr. […] The membranes were washed, and incubated in with Clarity™ Western ECL Blotting Substrate (Bio-Rad) for 5 minutes. Bands were exposed onto Kodak Chemiluminescence Film for times ranging from 1-30 minutes.
For orientation: A western blot detects proteins with antibodies after separation by electrophoresis.

Assay [6] has as its system patient IgEs. Put plainly: ELISA binding assay with patient sera. More on the design: species or system human. To be noted: for EC50: patient serum 0, plate coated with anti-IgE IgG. How it is done: ELISA Assay. A high binding 96-well plate was incubated with anti-Human IgE in Carbonate-Bicarbonate buffer (Sigma) at a concentration of 3 nM for 16 hours at 4° C. Plate was washed with washing buffer (PBS with 0.5% tween 20) and then blocked with blocking buffer (5% BSA in PBS with 0.1% tween 20) for 1 hr at room temperature. Plate was washed with automatic plate washer (AquaMax 2000), then varying concentrations of either Ara h 2-Biotin (Indoors Biotechnologies) or FITC-peptide 2 conjugate in blocking buffer for 1 hour. Plate was washed again and then either streptavidin-HRP (1:5000 dilution) or anti-FITC HRP IgG (1:5000 dilution) was added in blocking buffer. After washing, Amplex Red substrate was added (Invitrogen) and plate fluorescence read at 5 minute intervals according to manufacturers instructions.
Background: An ELISA detects its analyte on a solid surface through an enzyme-linked reagent.

The conditions of assay [7]: various sera from highly allergic individuals; cited from earlier work.
Where [8] appears, read: all four patient sera, 2% loaded, FIG. 6.

Consider “DNP-BSA: DNP groups covalently bonded to bovine serum albumin, valency of 18, used as a control”, for which a half-maximal response in assay [1] (EC50) required 26 ± 9 nM.
Take Dansyl: the dissociation constant (Kd) (in general, the concentration at which binding is half-saturated) worked out at 147 nM in assay [2] and 29.9 ± 10 nM in assay [3].
For the molecule “Epitope-Lipid 1: Ara h 2 epitope NLRPCEQHLMQKIQRD (38-53) lipid conjugate, tested loaded at 2% in nanoallergens (also: lipid conjugate, site not given here)”, in assay [4], the degranulation response entry is listed as “little or no degranulation response” and the Immuno-reactivity result is listed as “None”. Besides, the “degranulation response in patient sera” value in assay [4] (Serum 1, 2 and 3, in contrast to Serum 0) is listed as “moderate responses”.
With “Epitope-Lipid 2: Ara h 2 epitope ERDPYSP^OHSQDPYSP^OHS (79-91) lipid conjugate, tested loaded at 2% in nanoallergens (ERDPYS[Hyp]SQDPYS[Hyp]S; also: lipid conjugate, site not given here)”, in assay [4] (2% epitope 2 lipid, FIG. 2C), the “fold lower concentration than Ara h 2 to stimulate degranulation” value was “approximately 10 fold”. In assay [4], the degranulation response entry was “simulate degranulation” and the Immuno-reactivity entry is recorded as “High”. For the same molecule, the “effect of proline hydroxylations on degranulation response” value in assay [4] (2% loaded nanoallergens, with and without hydroxylations, FIG. 10) was “increase in response when proline hydroxylations are present”. In assay [4] (single patient serum, FIG. 4), the “fold lower concentration than the other immune-reactive epitope nanoallergens to stimulate degranulation” value is on record as “approximately 100 fold”. Besides, the BTK phosphorylation result in assay [5] is recorded as “increase in phosphorylation BTK”.
As to “Epitope-Lipid 3: Ara h 2 epitope SDRLQGRQQ (114-123) lipid conjugate, tested loaded at 2% in nanoallergens (also: lipid conjugate, site not given here)”, the degranulation response result in assay [4] (listed as epitope 3) is listed as “simulate degranulation; also recorded: could trigger degranulation”. The Immuno-reactivity result in assay [4] is “Mild”. In addition, in assay [6], the “binding through ELISA” value is reported as “did not demonstrate any binding”.
On to “Epitope-Lipid 4: Ara h 2 epitope RRCQSQLER (28-35) lipid conjugate, tested loaded at 2% in nanoallergens (also: lipid conjugate, site not given here)”, for which the degranulation response entry in assay [4] (listed as epitope 4) is listed as “simulate degranulation; also recorded: little or no degranulation response”. Moreover, the “degranulation response in patient sera” value in assay [4] (setting [8]) is “no response”. The Immuno-reactivity result in assay [4] is “None”.
For “Epitope-Lipid 5: Ara h 2 epitope HASARQQWEL (15-24) lipid conjugate, tested loaded at 2% in nanoallergens (also: lipid conjugate, site not given here)”, in assay [4] (listed as epitope 5), the degranulation response entry was “simulate degranulation; also recorded: could trigger degranulation”. Also, the “degranulation response in patient sera” value in assay [4] (setting [8]) is reported as “moderate responses”. The Immuno-reactivity result in assay [4] is “Mild”. The “binding through ELISA” value in assay [6] is on record as “did not demonstrate any binding”.
As to “Epitope-Lipid 6: Ara h 2 epitope RQQEQQFKRELRNLPQQ (120-136) lipid conjugate, tested loaded at 2% in nanoallergens (also: lipid conjugate, site not given here)”, in assay [4], the degranulation response entry is reported as “simulate degranulation” and the Immuno-reactivity result is reported as “Mild”. For the same molecule, the “degranulation response in patient sera” value in assay [4] (setting [8]) was “moderate responses”.
In the same order, the values of “Epitope-Lipid 7: Ara h 2 epitope PQRCDLE (142-148) lipid conjugate, tested loaded at 2% in nanoallergens (also: lipid conjugate, site not given here)” are “simulate degranulation”, “Low” and “low responses”.
As for “Epitope-Lipid 8: Ara h 2 epitope CDLEVESGGRDRY (145-157) lipid conjugate, tested loaded at 2% in nanoallergens (also: lipid conjugate, site not given here)”, in assay [4], the degranulation response entry was “little or no degranulation response” and the Immuno-reactivity entry was “None”. Further, the “degranulation response in patient sera” value in assay [4] (all four patient sera, 2% loaded, FIG. 6, listed as epitope 8) is “no response; also recorded: did not demonstrate any degranulation”.
For the molecule “Pep2: FITC-tagged epitope 2 peptide used in ELISA (ERDPYS[Hyp]SQDPYS[Hyp]S; also: FITC-tagged, site not given here)”, a half-maximal effect in assay [6] (EC50) was put at 465 ± 200 nM.
As for “free epitope 2 peptide: free Ara h 2 epitope 2 peptide, used at 100 μM (ERDPYS[Hyp]SQDPYS[Hyp]S)”, the “effect on Ara h 2 triggered degranulation” value is “only a very small decrease in degranulation response” in assay [4] and “did not prevent Ara h 2 protein from triggering degranulation” in assay [4] (listed as free epitope peptide 2). The “effect on nanoallergen degranulation response” value in assay [4] (100 μM free peptide 2, FIG. 9) is “can be prevented”.

B1: Ara h2: major peanut allergen, 17.5 kDa 2 S albumin seed storage protein (protein)
chain: RQQWELQGDRRCQSQLERANLRPCEQHLMQKIQRDEDSYGRDPYSPSQDPYSPSQDPDRRDPYSPSPYDRRGAGSSQHQERCCNELNEFENNQRCMCEALQQIMENQSDRLQGRQQEQQFKRELRNLPQQCGLRAPQRCDLEVESGGRDRY
Regarding B1, the “EC50 values in cellular studies” value in assay [7] is on record as “low picomolar range”. Further, in assay [6], the EC50 (usually the midpoint of the concentration-response curve) worked out at 40 ± 27 nM.
